This passage reports % of control and % of inhibition results from ChEMBL document CHEMBL5465560, “Selectivity Literature for EUbOPEN Chemogenomic Library” (2024).

The structures appear in SMILES notation.

Experiment [1] addresses Proto-oncogene tyrosine-protein kinase Src (Homo sapiens, UniProt P12931). The conditions noted are these: at 10 µM.
Experiment [2] has as its target T1, Mitogen-activated protein kinase kinase kinase kinase 2 (Homo sapiens) (UniProt Q12851).
T1 sequence (whole entry): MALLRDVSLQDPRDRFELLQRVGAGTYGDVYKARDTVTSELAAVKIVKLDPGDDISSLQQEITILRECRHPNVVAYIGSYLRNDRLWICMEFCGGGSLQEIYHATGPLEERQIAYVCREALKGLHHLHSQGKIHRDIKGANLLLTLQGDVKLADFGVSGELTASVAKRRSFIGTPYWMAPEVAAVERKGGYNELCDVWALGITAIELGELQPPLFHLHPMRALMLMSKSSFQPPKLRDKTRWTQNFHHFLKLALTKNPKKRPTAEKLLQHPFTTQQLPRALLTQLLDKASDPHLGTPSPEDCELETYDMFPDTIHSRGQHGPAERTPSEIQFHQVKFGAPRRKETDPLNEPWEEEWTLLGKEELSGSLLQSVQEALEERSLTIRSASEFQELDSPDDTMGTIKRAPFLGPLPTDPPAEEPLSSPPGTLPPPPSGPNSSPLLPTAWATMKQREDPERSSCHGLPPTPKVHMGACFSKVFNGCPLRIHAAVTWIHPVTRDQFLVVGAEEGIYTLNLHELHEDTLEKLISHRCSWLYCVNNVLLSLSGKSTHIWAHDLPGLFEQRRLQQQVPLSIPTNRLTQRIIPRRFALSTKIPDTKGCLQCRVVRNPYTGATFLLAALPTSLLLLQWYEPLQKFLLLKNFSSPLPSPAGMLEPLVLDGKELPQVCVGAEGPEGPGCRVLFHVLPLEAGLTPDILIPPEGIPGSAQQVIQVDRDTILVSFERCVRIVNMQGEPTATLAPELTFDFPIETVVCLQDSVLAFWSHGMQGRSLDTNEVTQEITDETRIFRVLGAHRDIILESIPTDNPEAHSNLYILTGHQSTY
Kind of experiment: Selectivity interaction (KinomeScan (DiscoverX)) EUB0000695a MAP4K2. The conditions noted are these: at 100 nM.

Experiment [3] deals with Tyrosine-protein kinase HCK (Homo sapiens) (UniProt P08631). The conditions noted are these: at 10 µM.
In experiment [4] the target is T2, Inhibitor of nuclear factor kappa-B kinase subunit epsilon (Homo sapiens) (UniProt Q14164).
T2 sequence (whole entry): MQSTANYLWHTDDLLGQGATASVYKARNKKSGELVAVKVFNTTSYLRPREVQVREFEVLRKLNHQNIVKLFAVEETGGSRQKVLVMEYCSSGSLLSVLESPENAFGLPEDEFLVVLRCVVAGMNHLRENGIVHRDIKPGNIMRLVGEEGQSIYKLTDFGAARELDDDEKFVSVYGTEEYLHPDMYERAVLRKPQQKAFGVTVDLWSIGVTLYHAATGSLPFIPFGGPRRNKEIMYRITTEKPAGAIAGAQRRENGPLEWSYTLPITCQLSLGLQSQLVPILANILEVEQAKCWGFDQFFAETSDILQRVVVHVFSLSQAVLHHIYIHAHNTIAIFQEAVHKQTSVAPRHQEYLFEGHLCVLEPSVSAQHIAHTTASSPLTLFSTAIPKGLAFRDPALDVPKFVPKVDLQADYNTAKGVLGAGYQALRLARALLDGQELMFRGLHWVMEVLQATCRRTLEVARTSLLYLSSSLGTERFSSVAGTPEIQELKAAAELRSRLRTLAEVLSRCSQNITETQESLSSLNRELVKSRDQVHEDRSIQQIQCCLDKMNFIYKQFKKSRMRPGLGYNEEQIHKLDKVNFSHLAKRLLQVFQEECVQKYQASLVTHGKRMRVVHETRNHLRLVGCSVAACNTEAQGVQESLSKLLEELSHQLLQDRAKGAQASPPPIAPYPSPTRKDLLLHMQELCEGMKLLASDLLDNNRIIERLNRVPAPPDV
In words: Selectivity interaction (Kinase panel (Invitrogen)) EUB0000639a IKBKE. The conditions noted are these: at 200 nM.

Experiment [5] deals with T3, cGMP-dependent protein kinase 1 (Homo sapiens) (UniProt Q13976).
T3 sequence (whole entry): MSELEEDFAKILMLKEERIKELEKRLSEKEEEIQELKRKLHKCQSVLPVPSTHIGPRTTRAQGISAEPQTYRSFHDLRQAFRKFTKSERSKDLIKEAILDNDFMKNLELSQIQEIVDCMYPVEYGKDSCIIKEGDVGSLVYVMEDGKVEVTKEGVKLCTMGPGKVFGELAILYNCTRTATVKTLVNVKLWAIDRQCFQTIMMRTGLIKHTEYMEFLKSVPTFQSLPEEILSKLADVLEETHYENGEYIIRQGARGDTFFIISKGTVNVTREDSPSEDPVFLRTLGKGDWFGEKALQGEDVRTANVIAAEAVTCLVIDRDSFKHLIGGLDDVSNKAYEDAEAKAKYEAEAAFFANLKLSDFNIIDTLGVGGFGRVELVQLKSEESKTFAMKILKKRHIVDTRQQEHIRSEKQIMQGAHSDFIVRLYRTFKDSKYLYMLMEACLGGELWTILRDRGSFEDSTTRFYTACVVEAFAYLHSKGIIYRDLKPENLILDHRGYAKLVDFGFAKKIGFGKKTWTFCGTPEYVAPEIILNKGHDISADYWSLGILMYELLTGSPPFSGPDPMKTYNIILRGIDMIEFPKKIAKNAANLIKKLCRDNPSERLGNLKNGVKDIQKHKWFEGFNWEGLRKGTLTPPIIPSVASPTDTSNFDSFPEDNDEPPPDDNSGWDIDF
Kind of experiment: Selectivity interaction (Ambit KINOMEscan and KiNATiv profiling in Jurkat cells) EUB0000090b PRKG1. In kind it is cell-based. The conditions noted are these: at 1 µM.

Tyrosine-protein kinase HCK (Homo sapiens), sequence (P08631 2-526 limits assumed): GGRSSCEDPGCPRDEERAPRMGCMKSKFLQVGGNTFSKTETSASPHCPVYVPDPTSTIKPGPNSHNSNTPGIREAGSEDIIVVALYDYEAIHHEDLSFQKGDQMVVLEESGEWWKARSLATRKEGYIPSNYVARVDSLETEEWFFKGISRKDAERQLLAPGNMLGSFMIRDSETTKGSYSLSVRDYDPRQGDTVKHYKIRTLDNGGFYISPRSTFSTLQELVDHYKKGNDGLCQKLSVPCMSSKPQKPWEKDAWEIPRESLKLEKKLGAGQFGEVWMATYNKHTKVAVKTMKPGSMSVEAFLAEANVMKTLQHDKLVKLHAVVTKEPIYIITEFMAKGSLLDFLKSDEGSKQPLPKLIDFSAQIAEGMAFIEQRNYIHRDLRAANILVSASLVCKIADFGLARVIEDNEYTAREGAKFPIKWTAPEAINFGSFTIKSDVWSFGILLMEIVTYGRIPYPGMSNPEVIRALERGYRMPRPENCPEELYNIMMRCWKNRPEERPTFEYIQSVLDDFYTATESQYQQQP
Proto-oncogene tyrosine-protein kinase Src, sequence (P12931 2-536 limits assumed): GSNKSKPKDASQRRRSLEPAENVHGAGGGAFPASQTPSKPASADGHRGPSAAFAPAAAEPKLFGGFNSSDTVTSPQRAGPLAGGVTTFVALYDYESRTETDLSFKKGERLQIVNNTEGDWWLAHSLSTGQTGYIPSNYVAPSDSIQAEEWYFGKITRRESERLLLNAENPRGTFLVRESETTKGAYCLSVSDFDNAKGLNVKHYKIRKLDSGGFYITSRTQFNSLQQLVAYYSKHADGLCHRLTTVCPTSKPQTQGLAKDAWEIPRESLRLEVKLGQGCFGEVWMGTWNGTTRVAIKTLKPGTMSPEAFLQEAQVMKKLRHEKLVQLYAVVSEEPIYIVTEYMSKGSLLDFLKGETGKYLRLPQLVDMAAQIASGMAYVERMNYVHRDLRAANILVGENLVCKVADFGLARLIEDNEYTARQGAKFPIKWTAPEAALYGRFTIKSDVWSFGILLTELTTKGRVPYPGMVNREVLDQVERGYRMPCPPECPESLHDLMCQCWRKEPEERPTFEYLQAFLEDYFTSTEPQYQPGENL

On to `CCN(CC)CCCCNc1ncc2cc(-c3cc(OC)cc(OC)c3)c(NC(=O)NC(C)(C)C)nc2n1`, for which the % of control in experiment [1] came out at 100%.
For the compound `Cc1cc(F)c(C(=O)Nc2cccc(-c3nncn3C(C)C)n2)cc1-n1cnc(C2CC2)c1`, in experiment [2], the % of control was determined as 100%.
Regarding `Cc1cc([C@@H](C)Nc2ccccc2C(=O)O)c2nc(N3CCOCC3)cc(=O)n2c1` [AZD-6482], in experiment [3], the % of control worked out at 100%.
`CC[C@@H]1[C@H](F)C(=O)N[C@@H]1COc1nccc2cc(C(N)=O)c(OC)cc12` [ZIMLOVISERTIB] registered a % of inhibition in experiment [4] of 2.32%.
With `CN(C)C/C=C/C(=O)Nc1ccc(C(=O)N2CCCC(Nc3ncc(Cl)c(-c4c[nH]c5ccccc45)n3)C2)cc1` (stereo not given), the % of control in experiment [5] worked out at 97%.
